Experimental data taken from patent US20210128554A1, “ANTI-FLAVIVIRIDAE ACTIVITY OF ANTI-RETROVIRAL NON-NUCLEOSIDE (NNRTIS) AND NUCLEOSIDE REVERSE TRANSCRIPTASE INHIBITORS (NNRTIS)” (priority 2016, published 2021).

Test system: Zika virus
Assay: ZIKV copy numbers released by primary human fetal astrocytes treated with NNRTIs (Real-time Q-RT-PCR)
Type: cell-based
Details: ZIKV 0.1 MOI, 5, 10, and 25 μM at 24, 48, 72 hrs, culture media at 96 hrs
Description: FIG. 6 is a graph showing that Zika virus replication is suppressed by antiretroviral HIV-1 non-nucleoside reverse transcriptase inhibitors (NNRTIs) in primary astrocytes: Primary human fetal astrocytes were plated in 6 well tissue culture dishes and infected with ZIKV at 0.1 MOI. At 24, 48, and 72 hrs post-infections, cells were treated with increasing concentrations of anti-retroviral non-nucleoside reverse transcriptase inhibitors Rilpivirine, Efavirenz, and Etravirine at 5, 10, and 25 μM concentrations. Culture media of the infected cells were collected at 96 hrs post-infections and subjected to Real-time Q-RT-PCR for the detection and quantification of ZIKV copy numbers released by infected cells.

SMILES | Zika virus replication (ZIKV copy numbers released by infected cells)
Cc1cc(C#N)cc(C)c1Oc1nc(Nc2ccc(C#N)cc2)nc(N)c1Br [Etravirine] | suppressed
O=C1Nc2ccc(Cl)cc2[C@@](C#CC2CC2)(C(F)(F)F)O1 [Efavirenz] | suppressed
